{"source": "patent EP0023885A1", "about": "“Method for the introduction of an oxygen-containing functional group into ansamycines, compounds thus obtained, and pharmaceutical compositions containing them” (CIBA-GEIGY AG, priority 1979, dated 1981)", "key": {"[1]": {"system": "grammnegative Stäbchenbakterien", "assay": "in vitro antibacterial activity against gram-negative rod bacteria", "assay_type": "cell-based", "conditions": "at the lowest tested concentration (0,01 mg/ml)", "source_text": "(§1) Diese neuen Verbindungen zeichnen sich durch ihre wertvollen pharmakologischen Eigenschaften aus: so besitzen sie gemäss den Resultaten in vitro antibiotische, insbesondere antibakterielle Eigenschaften, wie z.B. einerseits gegen grammpositive und grammnegative Kokken, wie Staphylococcus aureus, Streptococcus pyogenes, Streptococcus pneumoniae, Neisseria meningitis, Neisseria gonorhoae (im getesteten Konzentrationsbereich 0,01 bis 8 mcg/ml), andererseits gegen grammnegative Stäbchenbakterien, wie Enterobacteriaceae, Pseudomonas aeruginosa, Haemophilus influenzae (im getesteten Konzentrationsbereich von 0,01 bis […])."}, "[2]": {"system": "grammpositive und grammnegative Kokken", "assay": "in vitro antibacterial activity against cocci", "assay_type": "cell-based", "conditions": "at the lowest tested concentration (0,01 mcg/ml)", "source_text": "as §1"}}}
{"compound": "3-(2-Methoxyäthoxy)-rifamycin-S [3-(2-Methoxyäthyl)-rifamycin-S]", "values": [{"measurement": "Hemmwirkung", "setting": "[1]", "value": "deutliche Hemmwirkung"}, {"measurement": "Hemmwirkung", "setting": "[2]", "value": "deutliche Hemmwirkung"}]}
{"compound": "3-Benzoyloxyrifamycin-S [3-Benzoylrifamycin-S]", "values": [{"measurement": "Hemmwirkung", "setting": "[1]", "value": "deutliche Hemmwirkung"}, {"measurement": "Hemmwirkung", "setting": "[2]", "value": "deutliche Hemmwirkung"}]}
{"compound": "COC1C=COC2(C)Oc3c(C)c(O)c4c(c3C2=O)C(=O)C(OC(C)=O)=C(NC(=O)C(C)=CC=CC(C)C(O)C(C)C(O)C(C)C(OC(C)=O)C1C)C4=O", "note": "(stereo not shown) [3-Acetoxyrifamycin-S]", "values": [{"measurement": "Hemmwirkung", "setting": "[1]", "value": "deutliche Hemmwirkung"}, {"measurement": "Hemmwirkung", "setting": "[2]", "value": "deutliche Hemmwirkung"}]}
{"compound": "COC1=C2NC(=O)C(C)=CC=CC(C)C(O)C(C)C(O)C(C)C(OC(C)=O)C(C)C(OC)C=COC3(C)Oc4c(C)c(O)c(c(c4C3=O)C1=O)C2=O", "note": "(stereo not shown) [3-Methoxyrifamycin-S]", "values": [{"measurement": "Hemmwirkung", "setting": "[1]", "value": "deutliche Hemmwirkung"}, {"measurement": "Hemmwirkung", "setting": "[2]", "value": "deutliche Hemmwirkung"}]}
{"compound": "COC1C=COC2(C)Oc3c(C)c(O)c4c(c3C2=O)C(=O)C(Oc2ccccc2)=C(NC(=O)C(C)=CC=CC(C)C(O)C(C)C(O)C(C)C(OC(C)=O)C1C)C4=O", "note": "(stereo not shown) [3-Phenoxyrifamycin-S]", "values": [{"measurement": "Hemmwirkung", "setting": "[1]", "value": "deutliche Hemmwirkung"}, {"measurement": "Hemmwirkung", "setting": "[2]", "value": "deutliche Hemmwirkung"}]}
